Measurements taken from patent US9345245B2, “Synthetic compounds for vegetative ABA responses” (THE REGENTS OF THE UNIVERSITY OF CALIFORNIA, priority 2012, dated 2016).

Columns and labels:
PYR/PYL receptors = assay: Yeast two-hybrid agonist assay (PYR/PYL receptor - PP2C HAB1 interaction); assay type: cell-based, Arabidopsis; settings: 5 uM of test chemicals
Method: FIG. 1. Novel ABA agonists bind to multiple PYR/PYL. (A) Chemical structure of naturally occurring (+)-ABA, its (-) analog and selected ABA agonists. (B) Yeast two-hybrid agonist assays of PYR/PYL receptor sensitivity to 5 uM of test chemicals. Specific PYR/PYL Receptors and the PP2C HAB1 are expressed as Gal4 BD or AD fusion proteins respectively, as described in the text. A previously described yeast two-hybrid system was used in high throughput screens (HTS) to identify ABA agonists (see, Peterson F C, et al. (2010) Structural basis for selective activation of ABA receptors. Nature Structural & Molecular Biology 17(9):1109-1111). In this system the agonist promoted receptor-PP2C interaction drives expression of a URA3 or HIS3 reporter gene and rescues uracil or histidine auxotrophy of parental strains (Peterson F C, et al. (2010); […], Harlow E, & Boeke J D (1996) Reverse two-hybrid and one-hybrid systems to detect dissociation of protein-protein and DNA-protein interactions. Proceedings of the National Academy of Sciences of the United States of America 93(19):10315-10320). HTS were conducted using 5 different reporter strains that express binding domain (BD) fusions to […]3 or PYL4; these were co-expressed with activation domain (AD) fusions to HAB1 (pACT-HAB1); the constructs used have been described previously (Park et al. 2009). […]

[1] = tested on: Physcomitrella patens protonema; assay: Protonema growth of moss; assay type: in vivo; settings: 200 μM, 10 days
Method: (§1) FIG. 17. The effect of ABA and its agonists in Physcomitrella patens and Chlamydomonas. Protonemal growth images (A) and quantitative analysis (B) of the effects of ABA and agonists on Phsycomitrella patens. Protonema were grown on 200 μM of specific test chemical for 10 days. […] Pyrabactin bleached protonema. (C) The expression of ABA-responsive genes of Physcomitrella patens. Protonema were treated with 200 μM chemical solutions for 3 h. (D) Colony growth of Chlamydomonas on the chemical with salinity stress and osmotic stress. There was no effect of ABA and LC66C6 on the Chlamydomonas growth with and without stresses.

Chlamydomonas = assay: Colony growth of Chlamydomonas with and without salinity and osmotic stress; assay type: in vivo; settings: in vivo
Method: as §1

With `O=S(=O)(NCc1ccccn1)c1ccc(Br)c2ccccc12` [pyrabactin] the “receptor selectivity in yeast two-hybrid assay” value (PYR/PYL receptors) was “much greater receptor selectivity than ABA or the new agonist LC66C6”, the “bleaching of protonema (toxicity)” value [1] was “bleached the protonema” and the “bleaching of Chlamydomonas (toxicity)” value (Chlamydomonas) was “bleached the Chlamydomonas”.
